Source: patent publication US10857085B2, “Preparations comprising carnosines” (Symrise AG, priority 2015, dated 2020)

Columns and labels:
human fibroblasts [1] = test: Synthesis of dermal macromolecules (GAG) in collagen gel containing human fibroblasts; type: cell-based; details: 0.5% by weight FCS + 0.01% by weight substance; for Density, 14 days: relative density of collagen gel (0=clear or white, 1=black)
Excerpt: The dermis is composed of cells (fibroblasts and mast cells), tissue components (collagen and elastin) and so-called ground substances. These ground substances include, for example, glycosaminoglycan (GAG), hyaluronic acid, chondroitin sulfate, dermatan sulfate and glycoproteins. As a result of skin ageing, the intermolecular strength and elasticity of the dermis, and thus the tautness of the skin, is reduced. Likewise, the number of skin cells present, in particular fibroblasts, is reduced as the skin ages. The collagen fibers are fragmented over time, and the proportion of insoluble to soluble collagen increases. The fine dermal elastic fibers become coarse and are destroyed. The synthesis of GAG (glycosaminoglycan) is reduced. All these processes contribute to skin ageing and the manifestations thereof, such as wrinkles and lack of tautness of the skin.
The measuring method is based on staining macromolecules in a culture of human fibroblasts which, with type I collagen, forms a collagen gel or collagen lattice fibers. Certain regions of those fibers are quantified by means of staining reagents for the proportion of the mentioned macromolecules.
For that purpose, a suspension of human fibroblasts was mixed with a solution of type I collagen (1-2 mg/ml). This mixture was incubated in a defined nutrient medium (DMEM=Dulbecco minimum essential medium, Life Technologie Sarl) comprising 0.5 or 2% by weight fetal calf serum (FCS) for 14 days at 37° C. in a 5% CO2 atmosphere in Petri dishes (5 ml per dish) with the addition of different concentrations of the plant extracts to be tested.
The kinetics of the collagen gel […] was determined 2 to 3 times per week by measuring two perpendicular diameters on each collagen gel using a microscope with an image analysis system. The size of the area is shown in cm^2 in Table 8. After incubation for 14 days, the density of the collagen gel was determined by image analysis with a light source of visible light, by comparatively analyzing different gray stages. This is a relative determination of the density (0=clear or white and 1=black), which cannot be given a unit.
After an incubation period of 7 and 14 days, biopsies (tissue samples) were taken and histological sections of the collagen gel containing human fibroblasts were obtained. The synthesis of macromolecules was analyzed and quantified by the staining of glycosaminoglycan with PAS Alcian blue, for example from SIGMA, by the periodic acid-Schiff method (PAS) described in: Mowry R W, Anal. NY Adad. Sci. 106 Art 2, 402, 1963. The stimulation of the synthesis of macromolecules was evaluated in the immediate vicinity of fibroblasts. This zone is also referred to as the “perifibroblast area”.
The “perifibroblast” secretion, or the secretion of fibroblasts into the periphery, was quantified by an image analyzer by means of a microscope. Reactive structures in the “perifibroblast area” were detected, and the different gray stages were comparatively determined. The values of the gray stages were thereby subdivided from 0=white to 255=black. These parameters are directly proportional to the intensity of the synthesis of macromolecules and thus to the GAG content of the fibroblasts.
The results of the values of these parameters are shown in Table 3 below and are to be regarded directly as representative values for the synthesis activity of the fibroblasts. The content of GAGs is described as a relative value of the gray stage.

type I collagen = test: Inhibition of the non-enzymatic glycation of collagen (Schiff's bases, fluorescence 430 nm); type: biochemical; details: type I collagen with glucose, 21 days at 45° C.; control with glucose 100, control without glucose 46
Excerpt: Glycation is a non-enzymatic reaction of glucose or other sugars with proteins to form glycoproteins. This reaction leads to unintentional changes in the collagen and elastin and thus to changes in the extracellular matrix. The function of the collagen and the extracellular matrix is disrupted. The prevention according to the invention of glycation leads to a reduction in the non-enzymatic change in collagen and elastin and thus to the prevention of a reduced function of the extracellular matrix.
The suspensions were then centrifuged and the content of Schiff's bases in the supernatant liquid was determined by fluorescence measurement at 430 nm. The results are again based on the control as standards (without extract and without glucose).

[2] = test system: glucose-6-phosphate dehydrogenase (G6PDH); test: G6PDH activity in vitro on human fibroblasts (enzymatic method of Okada); type: cell-based; details: 0.001 % w/v; for G6PDH after 3 d: compared to blank sample = 100, after 3 d; for G6PDH after 6 d: compared to blank sample = 100, after 6 d
Excerpt: (§1) The enzyme glucose-6-phosphate dehydrogenase (G6PDH) catalyzes the first step of the so-called “pentose pathway”, in which an important DNA component, namely deoxyribose, is formed. Glucose 6-phosphate (G6P) is thereby converted into 6-phosphogluconate (6PG) by means of G6PDH. At the same time, the coenzyme NADP required thereby is reduced to NADPH2, which in turn is able to catalyze a large number of other biological reactions such as, for example, the recycling of glutathione or lipid synthesis. Reduced glutathione protects many enzymes which have SH groups and cells against oxidative stress, such as, for example, the action of UV. The G6PDH content is thus an important parameter for cell protection and skin renewal. G6PDH activity was determined in vitro on human fibroblasts by the enzymatic method of Okada, while the DNA content was determined by the Desaulniers method. The results of 3 series of measurements with triple determination are given in %-rel. compared to a blank sample.

human fibroblasts [3] = test: DNA content of human fibroblasts (Desaulniers method); type: cell-based; details: 0.001 % w/v; for DNA after 3 d: compared to blank sample = 100, after 3 d; for DNA after 6 d: compared to blank sample = 100, after 6 d
Excerpt: as §1

[4] = test system: human fibroblasts and human keratinocytes; test: Inhibition of apoptosis induced by growth factor deficiency (cell count, BrdU ELISA of cytoplasmic DNA fragments); type: cell-based; details: 0.001 % w/v, in comparison to the control = 100; for Content of DNA fragments: BrdU in cytoplasmic DNA fragments, based on a million cells
Excerpt: Apoptosis, unlike necrosis, is the natural purposive cell death of specific undesired or damaged cells. It is an active process of the cells (suicide on command). In the case of skin ageing especially, a deficiency of growth factors in the skin leads to induced apoptosis of the skin cells. In the cells affected by apoptosis, the nuclear DNA is degraded by the specific enzyme endonuclease and the DNA fragments are passed into the cytoplasm.
The ability of carnosines to prevent apoptosis induced by a deficiency of growth factors in human skin cells was studied. These tests were carried out in vitro on human fibroblasts and human keratinocytes. The human cells were cultivated in a nutrient medium (DMEM=Dulbecco minimum essential medium from Life Technologie Sarl) with 10% fetal calf serum (from Dutcher). Bromodeoxyuridine (BrdU) was added to the nutrient medium; it was incorporated into the DNA and later served for detection of the DNA fragments in the cytoplasm. After an incubation period of two days, the nutrient medium was replaced by nutrient medium (DMEM) without fetal calf serum. The active substance to be tested was added. For comparison, a cell sample without active substance to be tested was incubated.
After a further incubation period of one or two days at 37° C., the cells were recovered by trypsinization according to the method of Dunnebacke and Zitcer described in: Cell and tissue culture, Ed.: J. Paul, Churchill Livingstone, 1975, p. 226. After the trypsinization, the cells were centrifuged and counted. Then the content of BrdU in the DNA fragments from the cytoplasm was determined by means of the ELISA test (ELISA kit from Roche). The content of BrdU is a measure of the DNA fragments which have passed from the nucleus, the cell core, into the cytoplasm. The results were based on a million cells and given in percent in comparison to the control.

pancreas elastase = pancreas elastase (Sus scrofa, UniProt P00772); test: Inhibition of elastase activity (chromogenic labelled elastin substrate, OD 410 nm); type: biochemical; details: 0.3% by weight; 30 minutes at room temperature; relative to control = 0%
pancreas elastase, sequence (P00772 27-266): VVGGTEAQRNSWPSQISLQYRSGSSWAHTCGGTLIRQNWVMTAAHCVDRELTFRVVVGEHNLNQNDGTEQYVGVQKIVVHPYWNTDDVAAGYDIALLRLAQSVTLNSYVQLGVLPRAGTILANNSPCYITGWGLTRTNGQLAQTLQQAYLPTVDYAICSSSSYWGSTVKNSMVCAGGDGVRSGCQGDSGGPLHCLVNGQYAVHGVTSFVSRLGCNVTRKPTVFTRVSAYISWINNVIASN
Experimental: Elastase is a protease which is secreted by the fibroblasts under inflammatory conditions and is jointly responsible for the degradation of dermal macromolecules, such as, for example, collagen and elastin, and thus for skin ageing.
In order to determine the effectiveness of the plant extract in inhibiting the release of elastase, pancreas elastase (a serine protease) was studied and, as substrate, elastin was labeled with a chromogenic synthetic substrate. The system was incubated with the active ingredients for 30 minutes at room temperature and then, after centrifugation, the optical density of the dye at 410 nm was determined. The amount of extracts used was 0.3% by weight. The results were given relative to a control as standard (=0%); al-antitrypsin was used as the standard.

SMILES | Area, 7 days (human fibroblasts [1]; collagen gel area, 7 days) [cm2] | Area, 14 days (human fibroblasts [1]; collagen gel area, 14 days) [cm2] | Density, 14 days (human fibroblasts [1]; 14 days) | GAG content, 7 days (human fibroblasts [1]; relative value of the gray stage (0=white to 255=black), perifibroblast area, 7 days) | GAG content, 14 days (human fibroblasts [1]; relative value of the gray stage (0=white to 255=black), perifibroblast area, 14 days) | Inhibition of the glycation of collagen, Inhibition [%] (type I collagen) | G6PDH after 3 d [2] [%-rel.] | G6PDH after 6 d [2] [%-rel.] | DNA after 3 d (human fibroblasts [3]) [%-rel.] | DNA after 6 d (human fibroblasts [3]) [%-rel.] | Content of DNA fragments [4] [%] | Cell count ([4]; medium without fetal calf serum) [%] | Elastase inhibition, Inhibition [%] (pancreas elastase)
Cl.NCCC(=O)NCCc1cnc[nH]1 [Carnicine*HCl] | 9.9 | 5.8 | 0.25 | 11.8 | 13.3 | 65 | 104 | 109 | 106 | 118 | 88 | 118 | 28
NCCC(=O)N[C@@H](Cc1cnc[nH]1)C(=O)O [L-Carnosine] | – | – | 0.25 | – | – | 68 | – | – | – | 120 | 85 | – | –
CCCCC(CC)COC(=O)C(C#N)=C(c1ccccc1)c1ccccc1 (stereo not drawn) [Octocrinyl, reference compound] | – | – | – | – | – | – | 89 | 85 | 95 | 90 | – | – | –
